Assay results reported in US8809275B2, “Peptoids and methods for treating alzheimer's disease” (The Board of Trustees of the University of Arkansas, priority 2011, dated 2014).
Non-standard residues stand in square brackets, D forms with d. Residues, ends and D or L forms follow the SMILES beside them. N(1S-Me-propyl)Gly = CC[C@H](C)NCC(=O)O; Nspe = C[C@H](NCC(=O)O)c1ccccc1; Nlys = NCCCCNCC(=O)O

Biological target: T1, Aβ fibrils (Homo sapiens, UniProt P05067)
T1 construct: aliquots of Aβ(1-40) monomer, purified via size exclusion chromatography on Superdex 75
T1 sequence (P05067 672-711): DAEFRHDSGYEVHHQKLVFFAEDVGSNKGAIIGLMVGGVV
Experiment: Dot blot assay with LOC antibody binding to Aβ fibrils
Format: biochemical
Protocol: The results of the ThT assay were confirmed using a dot blot assay with antibodies capable of binding to Aβ fibrils, but not Aβ monomers or pre-fibrils (LOC, available from Millipore). Thus, reduction of signal in the dot blot as compared to control is indicative of the peptoid blocking fibril formation. The intensity of the dot blot signal detecting the binding of the LOC antibody to the Aβ fibrils after incubation with a control was set to 100% to indicate maximal fibril formation. This can then be compared to the intensity of the LOC antibody dot blot signal after incubation of the Aβ with each of the peptoids. A reduction in the percent of antibody binding is indicative of inhibition of aggregation of Aβ in the assay. […] To control for the signal being at the maximum intensity parallel samples were diluted in half with 40 mM Tris buffer before being blotted (1:2). After 2 hours of incubation, none of the peptoids were capable of inhibiting aggregation of Aβ at a 1:1 dilution, likely because the antibody signal is too saturated to detect any effect of the peptoids.

Compound: CC[C@H](C)N(CC(=O)N(CC(=O)N(CC(=O)N(CC(=O)N(CC(=O)N(CC(=O)N(CC(N)=O)[C@@H](C)c1ccccc1)[C@@H](C)c1ccccc1)[C@@H](C)CC)[C@@H](C)c1ccccc1)[C@@H](C)c1ccccc1)[C@@H](C)CC)C(=O)CNCCCCN [Peptoid 2] (H-[Nlys][N(1S-Me-propyl)Gly][N(1S-Me-propyl)Gly][Nspe][Nspe][N(1S-Me-propyl)Gly][Nspe][Nspe]-NH2)
- LOC antibody dot blot signal, percent of control (control = 100%) (Time 0 hr, dilution 1:1): 73.03%
- LOC antibody dot blot signal, percent of control (control = 100%) (Time 0 hr, dilution 1:2): 56.91%
- LOC antibody dot blot signal, percent of control (control = 100%) (Time 2 hr, dilution 1:1): 108.61%
- LOC antibody dot blot signal, percent of control (control = 100%) (Time 2 hr, dilution 1:2): 89.63%
